This assay addresses T1, recombinant human MNL phosphodiesterase type IV B (Homo sapiens, UniProt Q07343).
T1 construct: FLAG; made in house; host or cells: insect cells infected with recombinant baculovirus
The assay is described as follows: Inhibition of recombinant human mononuclear lymphocyte (MNL) phosphodiesterase type IV B produced in insect cells with a baculovirus vector. Particulars: remaining enzyme activity versus control. It is filed as biochemical. The protocol: Inhibition of Recombinant Human Mononuclear Lymphocyte (MNL) Phosphodiesterase Type IV B Produced in Insect Cells with a Baculovirus Vector
The alleviating and/or curing effect of the instant compounds on allergic and atopic diseases was assessed by an in vitro assay system to detect an inhibiting effect on the recombinant human MNL phosphodiesterase type IV B.
Seventy-two hours after infection with recombinant baculovirus, the insect cells were harvested and pelleted at 500 g for 5 minutes. The cells were lysed in 10 ml lysis-buffer consisting of 20 mM Tris, 10 mM EGTA, 2 mM Na2EDTA, 1% Triton-X-100, 1 mM Na3VO4, 10 mM NaF, 2 μg/ml of leupeptine, pepstatine and aprotinine, 0.3 μg/ml benzamidine and 100 μg/ml TPCK pH 7.5. After 5 minutes on ice, solubilized cells were centrifuged at 4000 rpm for 15 minutes at 4° C. The resulting supernatant was filtered through a 0.45 μm filter (Millipore) and brought to TBS buffer (50 mM Tris, 150 mM NaCl pH 7.4).
The supernatant containing phosphodiesterase (PDE) type IV B, was subsequently loaded onto a 5 ml anti-FLAG-M2 affinity gel column, previously activated with 5 ml 100 mM glycine pH 3.5 and equilibrated with 20 ml 50 mM Tris, 150 mM NaCl pH 7.4. After washing the column with equilibration buffer, PDE IV was eluted in 1.5 ml fractions containing 37.5 μl IM Tris pH 8. The fractions were dialyzed overnight against 20 mM Tris, 2mM Na2EDTA and 400 mM NaCl pH 7.5 and tested for PDE IV activity. Identification was done on SDS PAGE and Western Blot (anti-FLAG-M2). Active fractions were pooled, brought to 10% glycerol and stored at −70° C.
The incubation mixture (pH 8) (200 μl) contained 20 mM Tris, 10 mM magnesium sulphate, 0.8 μM ^3H-cAMP (310 mCi/mmole) and the phosphodiesterase type IV, the amount depending on the enzymatic activity. […]
The inhibiting effect of the present compounds on recombinant human MNL phosphodiesterase PDE IV B was measured at different concentrations of the instant compounds.

SMILES strings stand for the structures.

T1 sequence (Q07343 whole entry): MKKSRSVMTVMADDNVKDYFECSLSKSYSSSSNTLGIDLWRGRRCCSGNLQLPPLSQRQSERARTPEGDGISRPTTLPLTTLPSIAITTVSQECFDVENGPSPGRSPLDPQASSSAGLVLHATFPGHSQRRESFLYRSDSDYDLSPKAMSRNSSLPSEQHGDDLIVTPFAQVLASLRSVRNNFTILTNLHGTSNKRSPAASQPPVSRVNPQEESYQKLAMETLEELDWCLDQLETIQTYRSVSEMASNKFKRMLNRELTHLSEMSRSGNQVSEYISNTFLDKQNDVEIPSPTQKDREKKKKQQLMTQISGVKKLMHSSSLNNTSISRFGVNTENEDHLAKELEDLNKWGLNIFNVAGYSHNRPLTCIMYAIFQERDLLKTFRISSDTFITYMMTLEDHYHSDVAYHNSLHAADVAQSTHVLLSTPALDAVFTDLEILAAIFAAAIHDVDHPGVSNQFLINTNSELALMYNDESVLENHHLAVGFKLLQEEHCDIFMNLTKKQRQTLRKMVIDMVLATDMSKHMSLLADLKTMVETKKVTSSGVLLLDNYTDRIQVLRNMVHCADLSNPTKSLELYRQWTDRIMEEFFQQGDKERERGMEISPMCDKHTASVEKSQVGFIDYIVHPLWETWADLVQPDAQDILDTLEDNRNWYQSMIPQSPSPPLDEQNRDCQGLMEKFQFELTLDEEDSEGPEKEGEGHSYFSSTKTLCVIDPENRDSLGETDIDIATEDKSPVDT

As to `COc1ccc(C(C)Cn2cc[nH]c2=NC#N)nc1OC1CCCC1` (racemic) [Compound 22, (±)-[1-[2-[6-(cyclopentyloxy)-5-methoxy-2-pyridinyl]propyl]-1,3-dihydro-2H-imidazol-2-ylidene]cyanamide], the “% Activity (% activity of PDE IV B versus control)” value (“% Activity” for short) (Test Dose 10^−7 M) was found to be 25%.

Consider `COc1cnc(C(C)(O)Cn2cc[nH]c2=O)cc1OCCCCCc1ccccc1` (racemic) [Compound 23, (±)-1,3-dihydro-1-[2-hydroxy-2-[5-methoxy-4-[(5-phenylpentyl)oxy]-2-pyridinyl]propyl]-2H-imidazol-2-one], for which the “% Activity” value (Test Dose 10^−6 M) is 35%.

On to `COc1cnc(C(O)Cn2cc[nH]c2=O)cc1OCCCCCc1ccccc1` (stereo not drawn) [Compound 18, 1,3-dihydro-1-[2-hydroxy-2-[5-methoxy-4-[(5-phenylpentyl)oxy]-2-pyridinyl]ethyl]-2H-imidazol-2-one], for which, for the setting “Test Dose 10^−6 M”, the “% Activity” value came out at 77%.

These data come from US6656959B1, “PDE IV inhibiting pyridine derivatives” (Janssen Pharmaceutica N.V., priority 2000, dated 2003).
